Assay results from patent US20180355441A1, “VISUAL DETECTION OF PLATINATED DNA LESIONS FROM A CLICKABLE CISPLATIN PROBE USED AS DIAGNOSTIC TOOL OR TO IDENTIFY SYNERGISTIC TREATMENTS” (CENTRE NATIONAL DE LA RECHERCHE SCIENTIFIQUE, priority 2015, published 2018).

Tests used:
U2OS cells = assay: Cell viability assay (CellTiter-Blue), anti-proliferative activity; format: cell-based, human; settings: 72 h treatment
Method: Cell viability assays were carried out by plating U2OS cells (2,000 cells per well) in 96-well plates.

DNA-Pt in U2OS cells = assay: Screen of small molecule modulators of genome targeting using ACP staining as readout; format: cell-based, human; settings: U2OS cells co-treated with small molecule and ACP, confocal microscopy
Method: Labeled DNA-Pt were analyzed by confocal microscopy.
[…], ACP, APPOA and CP were prepared in the laboratory as described in the synthesis section of the methods. Suberoylanilide hydroxamic acid (SAHA) was purchased from Sigma and cisplatin was purchased from Tocris.
Data were analyzed with ImagaJ.

histone H4 = assay: Western blot of histone H4 acetylation; format: cell-based, human; settings: U2OS cells
Method: Cells were washed once with PBS and lysed in lysis buffer (50 mM Tris-HCl, pH 7.5, 150 mM NaCl, 1 mM EDTA, 1% Triton X-100). For Western blot, samples were briefly sonicated followed by boiling in SDS sample buffer and separated by SDS-PAGE gels. Proteins were transferred to nitrocellulose membrane (GE Healthcare) and western blotting was performed following standard protocols. Western blots were detected by chemiluminescence (GE Healthcare Amersham ECL prime) using a Bio-Rad Molecular Imager ChemiDoc XRS+ system. The primary antibodies used for western blotting: H2AX (Millipore; #07-627), γH2AX [pSer139] (Novus Biologicals; NB100-384), histone H4 (Abcam; ab7311), acetyl-histone H4 (Lys16) (Cell Signaling; #8804), acetyl-histone H4 (Millipore; #06-866), PCNA (Santa Cruz Biotech; PC10), RAD18 (Cell Signaling; #21000), PARP (Cell Signaling; #9542), β-tubulin (Abcam; ab6046). Secondary antibodies used were: anti-rabbit IgG, HRP-linked (Cell Signaling; #7074), anti-mouse IgG, HRP-linked (Cell Signaling; #7076).

[1] = test system: genomic DNA from U2OS cells; settings: compared to equal amounts of DNA collected from CP-treated cells; 3 h treatment
Excerpt: Samples were air dried and visualized using a Bio-Rad Molecular Imager ChemiDoc XRS+ system.

[2] = test system: 26-mer hairpin-forming DNA oligonucleotide containing a single 1,2-GG dinucleotide; settings: 37° C., 18 h
Method: The reaction of hp with ACP was performed at 37° C. for 18 h. Unbound ACP and salts were removed using a Sephadex G-25 Medium size exclusion resin (GE Healthcare) on laboratory prepared spin columns (BioRad).

Molecule	Anti-proliferative activity against U2OS cells (U2OS cells)	Effect on ACP staining (DNA-Pt) by visual inspection (DNA-Pt in U2OS cells)	Histone H4 acetylation (histone H4)	Fluorescence of labeled genomic DNA (dot blot) [1]	Reactivity towards DNA and labeling by alkyne-containing tag in vitro [2]
N.N.[Cl][Pt][Cl] [cisplatin]	exhibited anti-proliferative properties	–	–	–	–
Nc1ncn([C@@H]2O[C@H](CO)[C@@H](O)[C@H]2O)c(=O)n1 [Compound 5-Aza, 5-Azacytidine]	–	led to the occurrence of foci of DNA-Pt	–	–	–
O=C(CCCCCCC(=O)Nc1ccccc1)NO [SAHA, Suberoylanilide hydroxamic acid]	–	led to the occurrence of foci of DNA-Pt	induced histone hyperacetylation of histone H4	–	–
2-aminomethylpyridine(dichloro)platinum(II) azide [ACP]	exhibited anti-proliferative properties	–	–	higher level of fluorescence	can chemoselectively cross react with DNA and be labeled by an alkyne-containing tag
